Laboratory results from patent US20240158391A1, “DERIVATIVES OF 4-(IMIDAZO[1,2-A]PYRIDIN-3-YL)-N-(PYRIDIN-3-YL) PYRIMIDIN-2- AMINE FOR TREATING PROLIFERATIVE DISEASES AND CONDITIONS” (AUCENTRA THERAPEUTICS PTY LTD, priority 2019, published 2024).

Columns and labels:
CDK1/CyclinB = CDK1/CyclinB (Homo sapiens, UniProt P06493); experiment: ADP Glo kinase assay, CDK1/CyclinB; format: biochemical; conditions: for remaining activity at 1 µM: compound at 1 μM, read-out: Residual enzymatic activity (%) at 1 μM, CDK1 B; for Ki: Km ATP, read-out: Enzymatic inhibition, Ki, CDK1 B
Method: (§1) Test compounds are used in 1:3 serial dilutions for 10 concentrations (from 10-0.0005 μM) in 0.5% DMSO. […] The kinase reactions are run for optimised time period at room temperature and then the reaction is stopped by adding 5 μL of ADP Glo reagent.

MV-4-11 = experiment: Proliferation assay (resazurin, leukemia cell lines), MV-4-11; format: cell-based; conditions: Homo sapiens, MV4-11, read-out: 72 h Growth inhibition GI50, MV-4-11 cells
Source text: The following compounds were used as comparators.

CDK2/CyclinA2 = CDK2/CyclinA2 (Homo sapiens, UniProt P24941); experiment: ADP Glo kinase assay, CDK2/CyclinA2; format: biochemical; conditions: for remaining activity at 1 µM: compound at 1 μM, read-out: Residual enzymatic activity (%) at 1 μM, CDK2 A; for Ki: Km ATP, read-out: Enzymatic inhibition, Ki, CDK2 A
Method: as §1

CDK7/CyclinH/Mat1 = CDK7/CyclinH/Mat1 (Homo sapiens, UniProt P50613); experiment: ADP Glo kinase assay, CDK7/CyclinH/Mat1; format: biochemical; conditions: for remaining activity at 1 µM: compound at 1 μM, read-out: Residual enzymatic activity (%) at 1 μM, CDK7 H; for Ki: Km ATP, read-out: Enzymatic inhibition, Ki, CDK7 H
Method: as §1

CDK6/CyclinD3 = CDK6/CyclinD3 (Homo sapiens, UniProt Q00534); experiment: ADP Glo kinase assay, CDK6/CyclinD3; format: biochemical; conditions: for remaining activity at 1 µM: compound at 1 μM, read-out: Residual enzymatic activity (%) at 1 μM, CDK6 D3; for Ki: Km ATP, read-out: Enzymatic inhibition, Ki, CDK6 D3
Method: as §1

CDK9/CyclinT1 = CDK9/CyclinT1 (Homo sapiens, UniProt P50750); experiment: ADP Glo kinase assay, CDK9/CyclinT1; format: biochemical; conditions: for Ki: CDK9/CyclinT1, Km ATP, read-out: Enzymatic inhibition, Ki, CDK9 T1
Method: as §1

CDK4/CyclinD1 = CDK4/CyclinD1 (Homo sapiens, UniProt P11802); experiment: ADP Glo kinase assay, CDK4/CyclinD1; format: biochemical; conditions: for remaining activity at 1 µM: compound at 1 μM, read-out: Residual enzymatic activity (%) at 1 μM, CDK4 D1; for Ki: Km ATP, read-out: Enzymatic inhibition, Ki, CDK4 D1
Method: as §1

FLT3-ITD = biological target: T1, FLT3-ITD (Homo sapiens, UniProt P36888); experiment: ADP Glo kinase assay, FLT3-ITD; format: biochemical; conditions: Km ATP 100 μM, read-out: Enzymatic inhibition, Ki, FLT3-ITD
T1 sequence (P36888 1-993): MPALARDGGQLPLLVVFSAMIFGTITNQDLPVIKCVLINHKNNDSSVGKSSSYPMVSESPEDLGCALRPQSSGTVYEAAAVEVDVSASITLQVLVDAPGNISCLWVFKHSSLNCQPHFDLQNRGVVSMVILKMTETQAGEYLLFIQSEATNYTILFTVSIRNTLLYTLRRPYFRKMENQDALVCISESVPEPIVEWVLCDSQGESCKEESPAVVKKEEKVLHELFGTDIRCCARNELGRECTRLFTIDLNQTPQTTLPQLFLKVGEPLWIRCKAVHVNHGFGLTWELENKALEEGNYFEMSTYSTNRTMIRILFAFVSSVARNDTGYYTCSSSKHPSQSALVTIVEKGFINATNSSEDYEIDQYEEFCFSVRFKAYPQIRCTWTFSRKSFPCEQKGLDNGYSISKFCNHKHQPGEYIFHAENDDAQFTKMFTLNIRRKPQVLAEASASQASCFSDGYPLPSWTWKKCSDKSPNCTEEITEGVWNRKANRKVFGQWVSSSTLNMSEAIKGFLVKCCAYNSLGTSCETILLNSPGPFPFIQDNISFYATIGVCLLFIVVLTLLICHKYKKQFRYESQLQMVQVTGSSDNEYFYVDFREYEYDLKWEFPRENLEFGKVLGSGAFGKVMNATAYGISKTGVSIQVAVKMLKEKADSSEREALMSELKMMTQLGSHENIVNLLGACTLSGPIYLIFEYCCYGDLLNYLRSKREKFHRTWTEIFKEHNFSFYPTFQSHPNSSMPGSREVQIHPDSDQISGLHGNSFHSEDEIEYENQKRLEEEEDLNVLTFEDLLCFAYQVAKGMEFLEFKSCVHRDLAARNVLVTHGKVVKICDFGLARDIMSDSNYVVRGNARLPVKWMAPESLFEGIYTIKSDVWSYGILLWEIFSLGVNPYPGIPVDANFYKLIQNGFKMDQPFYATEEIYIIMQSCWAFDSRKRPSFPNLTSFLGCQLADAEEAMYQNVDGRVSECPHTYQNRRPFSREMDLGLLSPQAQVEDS
Method: as §1

CDK9/CyclinT1, sequence (P50750 whole entry, species assumed): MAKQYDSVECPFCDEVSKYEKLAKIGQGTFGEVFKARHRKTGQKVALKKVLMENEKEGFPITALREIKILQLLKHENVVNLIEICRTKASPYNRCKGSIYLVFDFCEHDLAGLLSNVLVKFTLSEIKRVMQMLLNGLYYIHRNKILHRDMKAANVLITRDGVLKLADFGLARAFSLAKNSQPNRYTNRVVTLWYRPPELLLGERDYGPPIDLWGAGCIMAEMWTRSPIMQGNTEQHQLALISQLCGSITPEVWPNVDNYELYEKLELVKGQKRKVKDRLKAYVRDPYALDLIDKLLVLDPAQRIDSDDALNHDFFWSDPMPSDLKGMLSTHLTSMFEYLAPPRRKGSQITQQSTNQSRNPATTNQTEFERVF
CDK9/CyclinT1, sequence (O60563 whole entry partner, species assumed): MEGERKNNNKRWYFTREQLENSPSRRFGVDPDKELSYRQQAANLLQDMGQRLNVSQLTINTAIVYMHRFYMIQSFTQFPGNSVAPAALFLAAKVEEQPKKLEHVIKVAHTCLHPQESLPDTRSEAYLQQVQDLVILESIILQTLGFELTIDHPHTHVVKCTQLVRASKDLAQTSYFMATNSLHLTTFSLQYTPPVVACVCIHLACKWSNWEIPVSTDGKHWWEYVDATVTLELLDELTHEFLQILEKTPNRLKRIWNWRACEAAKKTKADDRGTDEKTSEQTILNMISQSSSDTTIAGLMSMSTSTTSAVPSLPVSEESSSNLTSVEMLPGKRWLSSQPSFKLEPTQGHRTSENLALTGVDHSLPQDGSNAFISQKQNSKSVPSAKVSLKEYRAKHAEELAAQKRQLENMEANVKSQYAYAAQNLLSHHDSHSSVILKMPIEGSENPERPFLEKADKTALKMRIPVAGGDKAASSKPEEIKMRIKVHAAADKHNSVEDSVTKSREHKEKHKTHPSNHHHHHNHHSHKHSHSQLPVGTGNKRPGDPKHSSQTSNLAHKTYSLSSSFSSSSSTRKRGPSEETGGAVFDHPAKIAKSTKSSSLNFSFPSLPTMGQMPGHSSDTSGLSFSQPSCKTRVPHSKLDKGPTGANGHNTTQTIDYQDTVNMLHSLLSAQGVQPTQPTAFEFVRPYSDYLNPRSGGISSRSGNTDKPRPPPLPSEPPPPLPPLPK
CDK4/CyclinD1, sequence (P11802 whole entry, species assumed): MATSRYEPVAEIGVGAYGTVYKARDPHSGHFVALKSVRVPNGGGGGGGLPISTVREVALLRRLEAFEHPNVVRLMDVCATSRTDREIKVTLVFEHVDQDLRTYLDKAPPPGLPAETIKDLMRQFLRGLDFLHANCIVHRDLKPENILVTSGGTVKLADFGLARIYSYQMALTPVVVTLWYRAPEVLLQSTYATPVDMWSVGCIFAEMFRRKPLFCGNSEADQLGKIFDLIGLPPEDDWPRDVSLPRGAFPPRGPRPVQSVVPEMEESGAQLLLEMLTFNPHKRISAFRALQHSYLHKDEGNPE
CDK4/CyclinD1, sequence (P24385 whole entry partner, species assumed): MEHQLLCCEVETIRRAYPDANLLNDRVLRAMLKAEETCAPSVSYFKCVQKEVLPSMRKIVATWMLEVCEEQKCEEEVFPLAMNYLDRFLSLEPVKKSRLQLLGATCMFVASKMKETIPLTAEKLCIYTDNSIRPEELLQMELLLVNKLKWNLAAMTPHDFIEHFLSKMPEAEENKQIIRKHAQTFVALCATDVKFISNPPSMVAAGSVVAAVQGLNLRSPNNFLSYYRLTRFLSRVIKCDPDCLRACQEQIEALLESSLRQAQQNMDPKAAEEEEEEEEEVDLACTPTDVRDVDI
CDK7/CyclinH/Mat1, sequence (P50613 whole entry, species assumed): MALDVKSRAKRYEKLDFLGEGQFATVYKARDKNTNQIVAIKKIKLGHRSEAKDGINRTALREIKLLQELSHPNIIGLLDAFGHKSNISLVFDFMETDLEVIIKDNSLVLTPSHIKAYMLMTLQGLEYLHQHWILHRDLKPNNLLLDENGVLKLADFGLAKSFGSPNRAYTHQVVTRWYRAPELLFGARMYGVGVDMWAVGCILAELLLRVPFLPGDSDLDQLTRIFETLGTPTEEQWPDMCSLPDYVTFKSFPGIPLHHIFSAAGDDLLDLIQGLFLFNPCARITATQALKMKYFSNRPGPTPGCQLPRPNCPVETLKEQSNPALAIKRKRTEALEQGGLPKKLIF
CDK7/CyclinH/Mat1, sequence (P51946 whole entry partner, species assumed): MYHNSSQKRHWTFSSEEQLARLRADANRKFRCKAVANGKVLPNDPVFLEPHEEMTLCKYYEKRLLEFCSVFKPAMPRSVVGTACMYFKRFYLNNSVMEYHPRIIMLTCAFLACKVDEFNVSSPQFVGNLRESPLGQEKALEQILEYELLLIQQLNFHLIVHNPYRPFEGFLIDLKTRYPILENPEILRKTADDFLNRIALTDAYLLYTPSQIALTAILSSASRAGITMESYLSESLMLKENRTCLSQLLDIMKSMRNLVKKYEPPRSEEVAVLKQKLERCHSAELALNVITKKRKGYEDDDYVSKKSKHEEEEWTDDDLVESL
CDK7/CyclinH/Mat1, sequence (P51948 whole entry partner, species assumed): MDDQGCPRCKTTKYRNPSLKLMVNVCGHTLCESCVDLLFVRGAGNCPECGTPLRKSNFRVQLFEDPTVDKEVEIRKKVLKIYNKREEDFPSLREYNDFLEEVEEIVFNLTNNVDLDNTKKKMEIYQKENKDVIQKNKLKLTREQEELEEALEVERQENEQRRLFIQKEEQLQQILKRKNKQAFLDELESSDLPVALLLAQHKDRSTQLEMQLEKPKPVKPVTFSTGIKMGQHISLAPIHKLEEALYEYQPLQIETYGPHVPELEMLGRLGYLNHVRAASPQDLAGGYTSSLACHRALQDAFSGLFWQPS
CDK1/CyclinB, sequence (P06493 whole entry, species assumed): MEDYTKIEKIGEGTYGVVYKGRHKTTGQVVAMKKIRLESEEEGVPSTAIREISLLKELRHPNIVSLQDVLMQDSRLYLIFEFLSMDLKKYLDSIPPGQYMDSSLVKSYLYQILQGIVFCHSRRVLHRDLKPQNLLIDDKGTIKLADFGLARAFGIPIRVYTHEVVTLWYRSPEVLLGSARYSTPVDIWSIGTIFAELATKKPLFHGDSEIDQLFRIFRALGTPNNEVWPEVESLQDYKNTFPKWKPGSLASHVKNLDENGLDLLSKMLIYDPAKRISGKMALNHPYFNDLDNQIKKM
CDK1/CyclinB, sequence (P14635 whole entry partner, species assumed): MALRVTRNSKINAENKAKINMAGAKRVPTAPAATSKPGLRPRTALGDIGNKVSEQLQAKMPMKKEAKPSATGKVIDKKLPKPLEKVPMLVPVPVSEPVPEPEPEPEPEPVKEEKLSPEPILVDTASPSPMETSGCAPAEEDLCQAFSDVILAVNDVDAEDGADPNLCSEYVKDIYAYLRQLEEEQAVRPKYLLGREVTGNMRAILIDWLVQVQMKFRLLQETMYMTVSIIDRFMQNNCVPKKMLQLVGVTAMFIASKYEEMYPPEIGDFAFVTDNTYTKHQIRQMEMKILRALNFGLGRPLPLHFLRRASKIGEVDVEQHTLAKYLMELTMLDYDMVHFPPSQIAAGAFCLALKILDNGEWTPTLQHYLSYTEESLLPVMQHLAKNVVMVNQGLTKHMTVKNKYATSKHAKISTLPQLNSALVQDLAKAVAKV
CDK6/CyclinD3, sequence (Q00534 whole entry, species assumed): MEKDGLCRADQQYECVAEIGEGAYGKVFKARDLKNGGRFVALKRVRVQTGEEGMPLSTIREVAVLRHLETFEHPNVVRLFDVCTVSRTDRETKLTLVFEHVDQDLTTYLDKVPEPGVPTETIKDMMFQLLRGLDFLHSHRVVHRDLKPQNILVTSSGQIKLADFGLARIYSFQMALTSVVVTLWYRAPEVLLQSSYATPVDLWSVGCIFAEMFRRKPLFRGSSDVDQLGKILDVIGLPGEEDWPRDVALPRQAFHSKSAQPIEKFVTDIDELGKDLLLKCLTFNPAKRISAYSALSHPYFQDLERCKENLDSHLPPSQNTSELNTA
CDK6/CyclinD3, sequence (P30281 whole entry partner, species assumed): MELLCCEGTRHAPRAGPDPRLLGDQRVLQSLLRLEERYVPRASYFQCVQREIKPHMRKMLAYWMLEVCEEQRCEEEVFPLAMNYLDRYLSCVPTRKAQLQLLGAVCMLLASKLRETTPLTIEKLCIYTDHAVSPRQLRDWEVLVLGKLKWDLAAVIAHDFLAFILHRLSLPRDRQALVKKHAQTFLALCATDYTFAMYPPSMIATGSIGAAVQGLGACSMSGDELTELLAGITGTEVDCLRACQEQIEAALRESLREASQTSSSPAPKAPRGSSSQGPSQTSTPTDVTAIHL

| SMILES | remaining activity at 1 µM (CDK1/CyclinB) | GI50 (MV-4-11) | remaining activity at 1 µM (CDK2/CyclinA2) | remaining activity at 1 µM (CDK7/CyclinH/Mat1) | remaining activity at 1 µM (CDK6/CyclinD3) | Ki (CDK9/CyclinT1) | remaining activity at 1 µM (CDK4/CyclinD1) | Ki (CDK1/CyclinB) | Ki (FLT3-ITD) | Ki (CDK2/CyclinA2) | Ki (CDK7/CyclinH/Mat1) | Ki (CDK6/CyclinD3) | Ki (CDK4/CyclinD1) | inhibition of CDK9 (in words) (CDK9/CyclinT1; compared with comparator compounds A, B and C (N-(pyridin-2-yl)pyrimidin-2-amine moiety)) |
| --- | --- | --- | --- | --- | --- | --- | --- | --- | --- | --- | --- | --- | --- | --- |
| CN1CCN(c2ccc(Nc3nccc(-c4cnc5ccc(-c6cnn(C)c6)cn45)n3)nc2)CC1 [Comparator compound B, 4-(6-(1-methyl-1H-pyrazol-4-yl)imidazo[1,2-a]pyridin-3-yl)-N-(5-(4-methylpiperazin-1-yl)pyridin-2-yl)pyrimidin-2-amine, reference compound] | 98% | 7 nM | 99% | 70% | 87% | > 500 nM | 76% |  |  |  |  |  |  |  |
| CN1CCN(c2ccc(Nc3nccc(-c4cnc5ccc(-c6cccnc6)cn45)n3)nc2)CC1 [Comparator compound C, N-(5-(4-methylpiperazin-1-yl)pyridin-2-yl)-4-(6-(pyridin-3-yl)imidazo[1,2-a]pyridin-3-yl)pyrimidin-2-amine, reference compound] | 67% |  | 94% | 75% | 87% | 140 nM | 76% |  |  |  |  |  |  |  |
| CN1CCN(c2ccc(Nc3nccc(-c4cnc5ccccn45)n3)cn2)CC1 [Compound 1, 4-(Imidazo[1,2-a]pyridin-3-yl)-N-(6-(4-methylpiperazin-1-yl)pyridin-3-yl)pyrimidin-2-amine] |  | 1 nM |  |  |  | 2 nM |  | 141 nM | 2 nM | 59 nM | 1090 nM | 43 nM | 8 nM |  |
| Cc1nc2ccc(F)cn2c1-c1ccnc(Nc2ccc(N3CCN(C)CC3)nc2)n1 [Compound 2, 4-(6-Fluoro-2-methylimidazo[1,2-a]pyridin-3-yl)-N-(6-(4-methylpiperazin-1-yl)pyridin-3-yl)pyrimidin-2-amine] |  | 78 nM |  |  |  | 168 nM |  | 152 nM | 3 nM | 63 nM | 560 nM | 54 nM | 55 nM |  |
| Cc1cnc(Nc2ccc(N3CCN(C)CC3)nc2)nc1-c1cnc2ccccn12 [Compound 3, 4-(Imidazo[1,2-a]pyridin-3-yl)-5-methyl-N-(6-(4-methylpiperazin-1-yl)pyridin-3-yl) pyrimidin-2-amine] |  | 32 nM |  |  |  | 136 nM |  | 505 nM | 9 nM | 83 nM | 2900 nM | 522 nM | 46 nM |  |
| Fc1cnc(Nc2cccnc2)nc1-c1cnc2ccccn12 [Compound 4, 5-Fluoro-4-(imidazo[1,2-a]pyridin-3-yl)-N-(pyridin-3-yl)pyrimidin-2-amine] |  | 57 nM |  |  |  | 41 nM |  | 2 nM | 224 nM | 1 nM | 2540 nM | 2900 nM | 74 nM |  |
| CN1CCN(c2ccc(Nc3nccc(-c4cnc5ccc(-c6cnn(C)c6)cn45)n3)cn2)CC1 [Compound 9, 4-(6-(1-Methyl-1H-pyrazol-4-yl)imidazo[1,2-a]pyridin-3-yl)-N-(6-(4-methylpiperazin-1-yl)pyridin-3-yl)pyrimidin-2-amine] |  | 10 nM |  |  |  | 2 nM |  | 645 nM | 15 nM | 1030 nM |  |  | > 500 nM | dramatically and surprisingly increased the potency of inhibition of CDK9 |
| CS(=O)(=O)N1CCN(c2ccc(Nc3nccc(-c4cnc5ccc(Br)cn45)n3)cn2)CC1 [Compound 16, 4-(6-Bromoimidazo[1,2-a]pyridin-3-yl)-N-(6-(4-(methylsulfonyl)piperazin-1-yl)pyridin-3-yl)pyrimidin-2-amine] |  | 10 nM |  |  |  | 77 nM |  | 153 nM | 7 nM | 124 nM |  | 2090 nM | 718 nM |  |
| CN1CCN(c2ccc(Nc3nccc(-c4cnc5ccc(-c6cnc(N)nc6)cn45)n3)cn2)CC1 [Compound 23, 4-(6-(2-Aminopyrimidin-5-yl)imidazo[1,2-a]pyridin-3-yl)-N-(6-(4-methylpiperazin-1-yl)pyridin-3-yl)pyrimidin-2-amine] | 67% | 181 nM | 26% |  | 46% | 20 nM | 72% |  | 23 nM |  |  |  |  |  |
| CN1CCN(c2ccc(Nc3nccc(-c4cnc5ccc(-c6cn[nH]c6)cn45)n3)cn2)CC1 [Compound 24, 4-(6-(1H-Pyrazol-4-yl)imidazo[1,2-a]pyridin-3-yl)-N-(6-(4-methylpiperazin-1-yl)pyridin-3-yl)pyrimidin-2-amine] |  | 33 nM |  |  |  | 4 nM | 21% | 29 nM | 8 nM | 42 nM |  |  |  |  |

Second part, led by results:

| remaining activity at 1 µM (CDK1/CyclinB) | GI50 (MV-4-11) | remaining activity at 1 µM (CDK2/CyclinA2) | remaining activity at 1 µM (CDK7/CyclinH/Mat1) | remaining activity at 1 µM (CDK6/CyclinD3) | Ki (CDK9/CyclinT1) | remaining activity at 1 µM (CDK4/CyclinD1) | Ki (CDK1/CyclinB) | Ki (FLT3-ITD) | Ki (CDK2/CyclinA2) | Ki (CDK7/CyclinH/Mat1) | Ki (CDK6/CyclinD3) | Ki (CDK4/CyclinD1) | SMILES | inhibition of CDK9 (in words) (CDK9/CyclinT1; compared with comparator compounds A, B and C (N-(pyridin-2-yl)pyrimidin-2-amine moiety)) |
| --- | --- | --- | --- | --- | --- | --- | --- | --- | --- | --- | --- | --- | --- | --- |
|  | 4 nM |  |  |  | 4 nM |  | 48 nM | 16 nM | 15 nM | 84 nM |  | 34 nM | Cc1ccc2ncc(-c3ccnc(Nc4ccc(N5CCN(C)CC5)nc4)n3)n2c1 [Compound 35, 4-(6-Methylimidazo[1,2-a]pyridin-3-yl)-N-(6-(4-methylpiperazin-1-yl)pyridin-3-yl)pyrimidin-2-amine] |  |
|  | 39 nM |  |  |  | 10 nM |  | 145 nM | 10 nM | 44 nM |  | 295 nM | 49 nM | CC(C)N1CCN(c2ccc(Nc3nccc(-c4cnc5ccc(Br)cn45)n3)cn2)CC1 [Compound 38, 4-(6-Bromoimidazo[1,2-a]pyridin-3-yl)-N-(6-(4-isopropylpiperazin-1-yl)pyridin-3-yl)pyrimidin-2-amine] |  |
| 32% | 8 nM | 55% | 40% | 57% | 7 nM |  |  | 12 nM |  |  |  |  | CN1CCN(c2ccc(Nc3nccc(-c4cnc5ccc(-c6cnn(C(F)F)c6)cn45)n3)cn2)CC1 [Compound 70, 4-(6-(1-(Difluoromethyl)-1H-pyrazol-4-yl)imidazo[1,2-a]pyridin-3-yl)-N-(6-(4-methylpiperazin-1-yl)pyridin-3-yl)pyrimidin-2-amine] |  |
| 95% | 12 nM | 74% | 91% | 97% | > 500 nM |  |  | 24 nM |  |  |  |  | O=C1NCCC12CCN(c1ccc(Nc3nccc(-c4cnc5ccc(Br)cn45)n3)cn1)CC2 [Compound 71, 8-(5-((4-(6-Bromoimidazo[1,2-a]pyridin-3-yl)pyrimidin-2-yl)amino)pyridin-2-yl)-2,8-diazaspiro[4.5]decan-1-one] |  |
| 75% | 5 nM | 64% | 59% | 73% | > 500 nM |  |  | 55 nM |  |  |  |  | O=C1NCCC12CCN(c1ccc(Nc3nccc(-c4cnc5ccc(-c6ccccc6)cn45)n3)cn1)CC2 [Compound 72, 8-(5-((4-(6-Phenylimidazo[1,2-a]pyridin-3-yl)pyrimidin-2-yl)amino)pyridin-2-yl)-2,8-diazaspiro[4.5]decan-1-one] |  |
